# PubChem BioAssay AID248 (DTP/NCI, 2004)
# Values joined by “and” are separate entries in the source; they are usually repeats but may differ in a detail not shown here. Equal values may be shown once. Inconclusive results and toxic doses are left out.
# Tested on: L1210 leukemia ip in BDF1 mice, survival T/C
# Assay: NCI In Vivo Anticancer Drug Screen. Data for tumor model L1210 Leukemia (intraperitoneal) in B6D2F1 (BDF1) mice
# Conditions: endpoint: mean survival time, higher = longer survival
# Method in brief: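 Tumor cells were implanted, animals were treated, and survival was followed. The result divides the treated measurement by the vehicle-control measurement.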
# [1] = dose: 50.0 mg/kg/injection, schedule: Q01DX001 (ip), vehicle: carboxymethylcellulose (CMC)
# [2] = dose: 100.0 mg/kg/injection, schedule: Q01DX001 (ip), vehicle: carboxymethylcellulose (CMC)
# [3] = dose: 200.0 mg/kg/injection, schedule: Q01DX001 (ip), vehicle: carboxymethylcellulose (CMC)
# [4] = dose: 400.0 mg/kg/injection, schedule: Q01DX001 (ip), vehicle: carboxymethylcellulose (CMC)
# [5] = dose: 100.0 mg/kg/injection, schedule: Q01DX001 (ip), vehicle: saline
# [6] = dose: 100.0 mg/kg/injection, schedule: Q01DX009 (ip), vehicle: saline with Tween-80
# [7] = dose: 200.0 mg/kg/injection, schedule: Q01DX001 (ip), vehicle: saline
# [8] = dose: 200.0 mg/kg/injection, schedule: Q01DX009 (ip), vehicle: saline with Tween-80
# [9] = dose: 400.0 mg/kg/injection, schedule: Q01DX001 (ip), vehicle: saline
# [10] = dose: 400.0 mg/kg/injection, schedule: Q01DX009 (ip), vehicle: saline with Tween-80
# [11] = dose: 100.0 mg/kg/injection, schedule: Q04DX002 (ip), vehicle: Klucel (hydroxypropylcellulose) (HPC)
# [12] = dose: 200.0 mg/kg/injection, schedule: Q04DX002 (ip), vehicle: Klucel (hydroxypropylcellulose) (HPC)
# [13] = dose: 100.0 mg/kg/injection, schedule: Q01DX009 (ip), vehicle: Klucel (hydroxypropylcellulose) (HPC)
# [14] = dose: 100.0 mg/kg/injection, schedule: Q04DX003 (ip), vehicle: Klucel (hydroxypropylcellulose) (HPC)
smiles,measurement,setting,value
CCOC(=O)C(F)=C(CF)CF,T/C,[1],105 % of control
same,T/C,[2],111 % of control
same,T/C,[3],109 % of control
same,T/C,[4],94 % of control
CC(=O)N(O)CCCC1NC(=O)C(CCCN(O)C(C)=O)NC1=O (stereo unspecified),T/C,[5],97 % of control
same,T/C,[6],100 % of control
same,T/C,"dose: 100.0 mg/kg/injection, schedule: Q04DX003 (ip), vehicle: saline with Tween-80",92 % of control
same,T/C,[7],95 % of control
same,T/C,[8],102 % of control
same,T/C,"dose: 200.0 mg/kg/injection, schedule: Q04DX003 (ip), vehicle: saline with Tween-80",92 % of control
same,T/C,[9],95 % of control
same,T/C,[10],105 % of control
same,T/C,"dose: 400.0 mg/kg/injection, schedule: Q04DX003 (ip), vehicle: saline with Tween-80",100 % of control
O=C(NCCCCC(NC(=O)OCc1ccccc1)C(=O)Nc1ccc(Nc2ccc(NC(=O)C(CCCCNC(=O)OCc3ccccc3)NC(=O)OCc3ccccc3)cc2)cc1)OCc1ccccc1 (stereo unspecified),T/C,[5],88 % of control
same,T/C,[7],92 % of control
same,T/C,[9],94 % of control
CCOC(=O)C1=NN(c2ccccc2)C(=O)C1N=Nc1ccc(NS(=O)(=O)c2nccs2)cc1 (stereo unspecified),T/C,[5],102 % of control
same,T/C,[7],105 % of control
same,T/C,[9],96 % of control
C1=CC2(CC=C1C1=CCC3(C=C1)SCCS3)SCCS2,T/C,"dose: 50.0 mg/kg/injection, schedule: Q04DX002 (ip), vehicle: Klucel (hydroxypropylcellulose) (HPC)",108 % of control
same,T/C,[11],101 % of control
same,T/C,[12],104 % of control
CCOc1ccccc1NC(=O)c1ccccc1Cl,T/C,[13],102 % of control
same,T/C,"dose: 200.0 mg/kg/injection, schedule: Q01DX009 (ip), vehicle: Klucel (hydroxypropylcellulose) (HPC)",108 % of control
same,T/C,"dose: 400.0 mg/kg/injection, schedule: Q01DX009 (ip), vehicle: Klucel (hydroxypropylcellulose) (HPC)",93 % of control
COc1cc2c(cc1OC)C(CCC(=O)O)=NCC2,T/C,"dose: 12.5 mg/kg/injection, schedule: Q04DX002 (ip), vehicle: saline",101 % of control
same,T/C,"dose: 25.0 mg/kg/injection, schedule: Q04DX002 (ip), vehicle: saline",104 % of control
same,T/C,"dose: 50.0 mg/kg/injection, schedule: Q04DX002 (ip), vehicle: saline",90 % of control
Nc1cc(Cl)ccc1Oc1ccc(Cl)cc1,T/C,"dose: 37.5 mg/kg/injection, schedule: Q01DX009 (ip), vehicle: Klucel (hydroxypropylcellulose) (HPC)",103 % of control
same,T/C,"dose: 75.0 mg/kg/injection, schedule: Q01DX009 (ip), vehicle: Klucel (hydroxypropylcellulose) (HPC)",98 % of control
same,T/C,"dose: 150.0 mg/kg/injection, schedule: Q01DX009 (ip), vehicle: Klucel (hydroxypropylcellulose) (HPC)",95 % of control
Cc1nc(-c2ccc(N=Cc3ccc(N(CCOS(C)(=O)=O)CCOS(C)(=O)=O)cc3)cc2)c(C)s1,T/C,"dose: 2.5 mg/kg/injection, schedule: Q04DX003 (ip), vehicle: Klucel (hydroxypropylcellulose) (HPC)",109 % of control
same,T/C,"dose: 5.0 mg/kg/injection, schedule: Q04DX003 (ip), vehicle: Klucel (hydroxypropylcellulose) (HPC)",111 % of control
same,T/C,"dose: 10.0 mg/kg/injection, schedule: Q04DX003 (ip), vehicle: Klucel (hydroxypropylcellulose) (HPC)",122 % of control
same,T/C,"dose: 40.0 mg/kg/injection, schedule: Q04DX003 (ip), vehicle: Klucel (hydroxypropylcellulose) (HPC)",171 % of control
same,T/C,"dose: 80.0 mg/kg/injection, schedule: Q04DX003 (ip), vehicle: Klucel (hydroxypropylcellulose) (HPC)",117 % of control
same,T/C,[14],100 % of control
O=CNc1cc([N+](=O)[O-])cc([N+](=O)[O-])c1O,T/C,[14],104 % of control
same,T/C,"dose: 200.0 mg/kg/injection, schedule: Q04DX003 (ip), vehicle: Klucel (hydroxypropylcellulose) (HPC)",100 % of control
same,T/C,"dose: 400.0 mg/kg/injection, schedule: Q04DX003 (ip), vehicle: Klucel (hydroxypropylcellulose) (HPC)",93 % of control
O=C(CCl)COP(=O)(O)O,T/C,"dose: 6.25 mg/kg/injection, schedule: Q01DX009 (ip), vehicle: other",102 % of control
same,T/C,"dose: 12.5 mg/kg/injection, schedule: Q01DX001 (ip), vehicle: other",102 % of control
same,T/C,"dose: 12.5 mg/kg/injection, schedule: Q01DX009 (ip), vehicle: other",91 % of control
same,T/C,"dose: 12.5 mg/kg/injection, schedule: Q04DX003 (ip), vehicle: other",91 % of control
same,T/C,"dose: 25.0 mg/kg/injection, schedule: Q01DX001 (ip), vehicle: other",91 % of control
same,T/C,"dose: 25.0 mg/kg/injection, schedule: Q01DX009 (ip), vehicle: other",101 % of control
same,T/C,"dose: 25.0 mg/kg/injection, schedule: Q04DX003 (ip), vehicle: other",88 % of control
same,T/C,"dose: 50.0 mg/kg/injection, schedule: Q01DX001 (ip), vehicle: other",96 % of control
same,T/C,"dose: 50.0 mg/kg/injection, schedule: Q01DX009 (ip), vehicle: other",114 % of control
same,T/C,"dose: 50.0 mg/kg/injection, schedule: Q04DX003 (ip), vehicle: other",93 % of control
same,T/C,"dose: 100.0 mg/kg/injection, schedule: Q01DX001 (ip), vehicle: other",89 % of control
same,T/C,"dose: 100.0 mg/kg/injection, schedule: Q04DX003 (ip), vehicle: other",106 % of control
O=[N+]([O-])c1ccc(N/N=C\c2ccc(OCCOCCCl)cc2)c([N+](=O)[O-])c1,T/C,"dose: 25.0 mg/kg/injection, schedule: Q01DX001 (ip), vehicle: saline with Tween-80",94 % of control
same,T/C,"dose: 50.0 mg/kg/injection, schedule: Q01DX001 (ip), vehicle: saline with Tween-80",86 % of control
same,T/C,"dose: 100.0 mg/kg/injection, schedule: Q01DX001 (ip), vehicle: saline with Tween-80",94 % of control and 92 % of control
O=C(Nc1ccc(Br)cc1)Oc1ccccc1C(=O)OCc1ccccc1,T/C,[11],97 % of control
same,T/C,[12],87 % of control
COc1ccc(CNCCC(=O)O)cc1OC,T/C,[1],107 % of control
same,T/C,[2],100 % of control
same,T/C,[3],105 % of control
same,T/C,[4],105 % of control
CCC(C)C(NN)C(=O)O (stereo unspecified),T/C,"dose: 12.0 mg/kg/injection, schedule: Q01DX Z (ip), vehicle: carboxymethylcellulose (CMC)",113 % of control
same,T/C,"dose: 25.0 mg/kg/injection, schedule: Q01DX Z (ip), vehicle: carboxymethylcellulose (CMC)",112 % of control
same,T/C,"dose: 50.0 mg/kg/injection, schedule: Q01DX Z (ip), vehicle: carboxymethylcellulose (CMC)",110 % of control
same,T/C,"dose: 100.0 mg/kg/injection, schedule: Q01DX Z (ip), vehicle: carboxymethylcellulose (CMC)",118 % of control
same,T/C,"dose: 200.0 mg/kg/injection, schedule: Q01DX015 (ip), vehicle: carboxymethylcellulose (CMC)",104 % of control
COc1ccc(NC(=O)Oc2cccc(C(F)(F)F)c2)c(Cl)c1,T/C,[6],96 % of control
same,T/C,[8],97 % of control
same,T/C,[10],94 % of control
COc1cccc(CCC(=O)O)c1,T/C,"dose: 100.0 mg/kg/injection, schedule: Q01DX009 (ip), vehicle: gum acacia",107 % of control
same,T/C,"dose: 100.0 mg/kg/injection, schedule: Q04DX003 (ip), vehicle: gum acacia",104 % of control
same,T/C,"dose: 200.0 mg/kg/injection, schedule: Q01DX009 (ip), vehicle: gum acacia",107 % of control
same,T/C,"dose: 200.0 mg/kg/injection, schedule: Q04DX003 (ip), vehicle: gum acacia",102 % of control
same,T/C,"dose: 400.0 mg/kg/injection, schedule: Q01DX009 (ip), vehicle: gum acacia",98 % of control
same,T/C,"dose: 400.0 mg/kg/injection, schedule: Q04DX003 (ip), vehicle: gum acacia",96 % of control
Cc1cc2oc(=O)cc(N3CCOCC3)c2c(=O)o1,T/C,[6],117 % of control
same,T/C,[8],114 % of control
COC(=O)c1ccc(C(=O)CC(=O)c2ccccc2)cc1.COC(=O)c1ccc(C(=O)CC(=O)c2ccccc2)cc1.COC(=O)c1ccc(C(=O)CC(=O)c2ccccc2)cc1.COC(=O)c1ccc(C(=O)CC(=O)c2ccccc2)cc1.COC(=O)c1ccc(C(=O)CC(=O)c2ccccc2)cc1.[Th],T/C,"dose: 25.0 mg/kg/injection, schedule: Q01DX005 (ip), vehicle: Klucel (hydroxypropylcellulose) (HPC)",89 % of control
same,T/C,"dose: 25.0 mg/kg/injection, schedule: Q01DX009 (ip), vehicle: Klucel (hydroxypropylcellulose) (HPC)",100 % of control
same,T/C,"dose: 50.0 mg/kg/injection, schedule: Q01DX005 (ip), vehicle: Klucel (hydroxypropylcellulose) (HPC)",93 % of control
same,T/C,"dose: 50.0 mg/kg/injection, schedule: Q01DX009 (ip), vehicle: Klucel (hydroxypropylcellulose) (HPC)",100 % of control
same,T/C,"dose: 100.0 mg/kg/injection, schedule: Q01DX005 (ip), vehicle: Klucel (hydroxypropylcellulose) (HPC)",93 % of control and 89 % of control
same,T/C,[13],93 % of control
same,T/C,[11],96 % of control
same,T/C,[12],100 % of control
same,T/C,"dose: 400.0 mg/kg/injection, schedule: Q04DX002 (ip), vehicle: Klucel (hydroxypropylcellulose) (HPC)",93 % of control
